For one data set, the system named is conscious SCI rats. Briefly: Cystometric parameters in conscious spinal cord injury (SCI) rats. In kind it is in vivo, rat. The protocol:
Test substance effects were compared to those of the reference substance, the β3-adrenoceptor agonist mirabegron, marketed for overactive bladder.
• At W-5, spinal cord injury was performed at T8 level as described below. • Over W-5, rats were treated daily with gentamicin. • Over W-5 and W-4, bladder was emptied manually once a day. • From W-5 to W0, animals were weighed once per week. • At D-2 (W0), implantation of catheters was performed under isoflurane anaesthesia as described below. • At D0 (W0), cystometry was performed
Rats were anesthetized with isoflurane (3%). Body temperature was constantly maintained at 37° C. throughout the surgery by placing animals on a thermo-regulated hot plate. A laminectomy was performed and the spinal cord was sectioned with microscissors at T8 level. Care was taken to assure that the section was complete by verifying that a slight retraction of the two segments occurred. Then the muscle was sutured and the skin fixed with staples. The scar was cleaned by Vetedine. For the Sham group, the same surgery was performed without section of the spinal cord.
The urinary bladder was squeezed once a day for 14 days with a gentle massage of the abdomen until restoration of the micturition reflex. In addition, they were administered intramuscularly daily for one week with gentamicin (2 mg/mL, 0.2 ml/rat). Animals were euthanized if they reached humane endpoints: weight loss of greater than 20% of their body weight and/or abnormal behavioral changes indicating presence of pain and distress (prostration, self-mutilation, aggressiveness).
Rats were anesthetized with isoflurane (3%). Body temperature was constantly maintained at 37° C. throughout the surgery by placing animals on a thermo-regulated hot plate. A polyethylene catheter (0.58 and 0.96 mm of inner and outer diameters, respectively) was implanted in the bladder through the dome for intravesical pressure recording. Another catheter (0.58 and 0.96 mm of inner and outer diameters, respectively) was implanted in the stomach for intra-gastric administration. Catheters were exteriorized at the scapular level. After surgery, each rat was housed individually up to the end of the protocol with free access to food and water.
Animals were held under partial restraint in a restraining device. Saline was infused into the bladder at a constant flow rate of 2 or 6 mL/h for sham or SCI rats, respectively. After at least 45 min (3 complete micturition cycles corresponding to basal values), test substances were administered by intra-gastric route. Then, intravesical pressure was recorded for 90 min.
The following cystometric parameters were analyzed (see FIG. 10): • Amplitude of micturition (AM, mmHg). • Threshold pressure (ThP, mmHg). • Intercontraction interval (ICI, sec): time between basal pressure and ThP. ICI was not presented due to different infusion rate in sham and SCI rats. ICI was only analyzed to calculate the bladder capacity. • Bladder capacity (BC, mL) BC=ICI×infusion rate. • Amplitude of non voiding contractions (NVC, mmHg) • Frequency of NVC (number per min).
For each cystometric parameter and for each time period, the comparisons were performed as described below: • Basal values of each cystometric parameter of Sham/Vehicle and SCI/Vehicle groups were compared using unpaired student t test • Basal values of each cystometric parameter of all SCI groups were compared using one-way ANOVA or Kruskal-Wallis test • The 3 interval periods of 30 min post treatment of each cystometric parameter within the same group were compared to corresponding basal values using one-way ANOVA with repeated measures or Friedman test followed by Dunnett's or Dunn's post-test, respectively. • The 3 interval periods of 30 min post treatment of each cystometric parameter were compared between all SCI groups using one-way ANOVA or Kruskal Wallis test followed by Holm-Sidak's or Dunn's post-test versus Vehicle, respectively.

A short description of data set [1]: Phase 1 single-dose pharmacokinetics, mild renal impairment vs normal renal function. The data set is classed as in vivo, human. The following applies: single oral 1.0-mg immediate-release tablet. The method, then: This was a phase 1, nonrandomized, open-label, parallel-group, single-dose study. A total of 20 subjects (10 subjects with mild renal impairment and 10 healthy subjects with normal renal function) were studied.
At screening, subjects were assigned to a study group according to estimated glomerular filtration rate (eGFR), calculated using the 2021 Chronic Kidney Disease Collaboration (CKD-EPI 2021) formula as follows, in Table 11: […]
Subjects remained fasted for 4 hours after study drug dosing (except diabetic subjects, who were allowed a light breakfast at 2 hours after study drug dosing as judged by the investigator). Except as part of study drug administration, subjects restricted their consumption of water for 2 hours before dosing and for 2 hours after dosing. At all other times during the study, subjects were able to consume water ad libitum.

Setting [2] is: i.g., Cpd (IA) 30 mg/kg, mirabegron 10 mg/kg.

Entries after “also recorded” stand apart in the source; their conditions may differ.

`O=C(O)c1nc2ccccc2n([C@H]2C[C@H]3CCC[C@@H](C2)N3C2CC3CCCC(C3)C2)c1=O` (stereo partly drawn) [Cpd (IA)]: the “% of variation from basal values of BC” value in the data set with conscious SCI rats (Cpd (IA) 30 mg/kg i.g., 0-30 min interval, mean±s.e.m., vehicle −0.4±15) is recorded as −35±7%. Further, in the data set with conscious SCI rats (setting [2]), the “AM (amplitude of micturition), effect versus basal” value is “did not significantly modify”; the “AM (mmHg and % variation), effect versus vehicle” value was “not significantly modified”; the “BC expressed in % variation from basal, effect versus vehicle” value is “significantly decreased BC for the 0-30 min post-administration interval period; also recorded: significantly reduced BC, compared to vehicle, for the 0-30 min post-administration interval period”; the “BC expressed in mL, effect versus vehicle” value is “no significant difference”. Besides, in the data set on conscious SCI rats (setting [2]), the “NVC amplitude (mmHg or % variation), effect versus vehicle” value is given as “not significantly modified”; the “NVC amplitude, effect versus basal” value is “significantly decreased NVC amplitude for the 30-60 and 60-90 min post-administration interval periods”; the “NVC frequency (NVC/min and % variation), effect versus vehicle” value is on record as “not significantly modified”; the “NVC frequency, effect versus basal” value is “significantly decreased NVC frequency for the 0-30 and 60-90 min interval periods”. Moreover, in the data set on conscious SCI rats (setting [2]), the “ThP (mmHg and % variation), effect versus vehicle” value was “not significantly modified”; the “ThP (threshold pressure), effect versus basal” value is “no significant effect”. In addition, in the data set with conscious SCI rats (i.g., Cpd (IA) 30 mg/kg, mirabegron 10 mg/kg, 30-min interval periods to 90 min), the “BC (bladder capacity), effect versus basal” value was “significantly decreased BC for the 0-30 and 30-60 min post-administration interval periods”. In addition, the “NVC frequency, effect versus basal” value in the data set with conscious SCI rats (i.g., Cpd (IA) 30 mg/kg, mirabegron 10 mg/kg, listed as compound of formula (IA)) is “significantly decreased NVC frequency compared to basal value for the 0-30 and 60-90 min post-administration interval periods”. For the same compound, in data set [1] (all subjects), the “plasma concentrations at 72 and 96 hours” value was “all below the limit of quantitation”. Moreover, the “plasma concentrations over time, mild renal impairment versus normal renal function” value in data set [1] (n=10 per group) was “comparable”.
